In publication PMC12858405, “Ideal efficacy photoswitching for chromocontrol of TRPC4/5 channel functions in live tissues” (Nature Chemical Biology, 2026):

What was measured:
TRPC4 = target: T1, TRPC4 (Mus musculus, UniProt Q9QUQ5); assay: Whole-cell patch clamp with monochromated photoswitching, TRPC4-expressing HEK293 cells; type: cell-based; settings: 10 nM, Vh −80 mV, action spectrum 330-505 nm
T1 construct: expressed in transfected cells; host or cells: HEK293
T1 sequence (Q9QUQ5 1-890 isoform Q9QUQ5-2): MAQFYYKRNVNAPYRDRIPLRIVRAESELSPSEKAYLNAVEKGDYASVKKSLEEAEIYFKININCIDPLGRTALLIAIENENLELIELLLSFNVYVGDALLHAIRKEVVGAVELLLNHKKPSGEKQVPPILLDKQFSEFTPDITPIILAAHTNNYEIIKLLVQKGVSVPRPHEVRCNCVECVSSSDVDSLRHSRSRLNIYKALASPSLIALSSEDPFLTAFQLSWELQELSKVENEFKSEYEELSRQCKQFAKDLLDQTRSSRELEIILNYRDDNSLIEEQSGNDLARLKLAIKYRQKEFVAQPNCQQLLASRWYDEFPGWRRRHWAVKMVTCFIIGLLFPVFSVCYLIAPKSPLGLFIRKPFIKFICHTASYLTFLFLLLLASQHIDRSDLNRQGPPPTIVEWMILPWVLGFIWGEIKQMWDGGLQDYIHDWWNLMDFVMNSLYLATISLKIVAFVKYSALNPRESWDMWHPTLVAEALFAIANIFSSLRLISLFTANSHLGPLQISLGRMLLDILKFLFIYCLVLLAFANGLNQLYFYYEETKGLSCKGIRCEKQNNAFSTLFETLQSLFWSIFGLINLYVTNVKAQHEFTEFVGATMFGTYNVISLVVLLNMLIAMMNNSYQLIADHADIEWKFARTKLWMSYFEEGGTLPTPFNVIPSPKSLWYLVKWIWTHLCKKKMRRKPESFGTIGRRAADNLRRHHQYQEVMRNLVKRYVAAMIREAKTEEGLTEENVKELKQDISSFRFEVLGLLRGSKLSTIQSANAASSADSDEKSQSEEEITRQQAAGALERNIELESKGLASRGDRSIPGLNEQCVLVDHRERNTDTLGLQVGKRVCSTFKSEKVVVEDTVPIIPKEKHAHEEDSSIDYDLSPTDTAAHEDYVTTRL
From the text: We next performed electrophysiological patch clamp experiments to characterize the action and specificity of channel modulation in more detail. […] Secondly, electrophysiology readouts linearly and temporally resolve ionic currents through the activated channels, unlike the delayed and attenuated fluorometric Ca^2+ influx analyses in FLIPR. Thirdly, the electrophysiology setup can use narrow-bandwidth monochromated light at any wavelength.
The repeatability of on–off photocycling allowed us to extract action spectra for both (1) photoactivation (Fig. 2d,e) and (2) photodeactivation (Fig. 2f,g) in situ in live cells.
The advantage of the ephys setup is that freely chosen monochromated wavelengths can be used for photoswitching, while in parallel there is no optical imaging light to counteract these optimal wavelengths: and this allows for optimising the photoswitchability.
repeatability of on/off photocycling allowed us to extract action spectra for both (1) photoactivation (Fig. 2d,e) and (2) photodeactivation (Fig. 2f,g) in situ in live cells.
physiological whole-cell recordings of TRPC4 currents in voltage clamp mode (a,b,d-g: Vh = -80 mV; c: Vh scan)
return to baseline currents throughout the applied voltage range. d-g, Spectral scans to extract the wavelength […]

[1] = system: mouse small intestine segments; assay: Spontaneous motility of atropine-paralysed intestinal segments, video imaging with 365/447 nm
From the text: Müller, Niemeyer, et al., Schaefer & Thorn-Seshold 2025: Ideal Efficacy Photoswitching of TRPC4/5 in Tissue 7 Spontaneous motility and isometric contractility (Fig. 6)
(§1) After sacrificing mice in accordance to the European (Council Directive 2010/63/EU) and German guidelines for the welfare of experimental animals, the abdomen was opened, and intestinal loops were mobilised. Ileal segments were obtained starting 10 mm from the ileocoecal junction. Ileal segments with a length of 3 mm for myography experiments or with a length of 8-12 mm for observation of spontaneous movement were cut out and flushed with carbogen-equilibrated KBRS.
The adventitial layer was carefully peeled off, using a pair of forceps. […]
Spontaneous motility: for macroscopic observation, ileal segments were placed in KBRS-filled 24-well plates, and treated with 300 nM atropine (which has long been known to override the inherent oscillatory bias of the gut nerve system to paralyse digestion) or its solvent. […] A time-lapse movie was recorded, and 365 nm or 447 nm LED were electronically switched to induce photoswitching. The recorded image stack was cut into substacks, covering a single well, each. The temporal variance of the shadow cast by the segments was calculated for consecutive 1 s bins and taken as a measure to obtain the temporal signature of the motility. […]

[2] = system: mouse ileal or jejuneal segments; assay: Myographic isometric contractility of intestinal segments during photoswitching
From the text: Basal tension was then restored under 447-nm light and 365/447-nm cycling could be repeated many times (Fig. 6e). […]
7 Spontaneous motility and isometric contractility (Fig. 6)
as §1
The adventitial layer was carefully peeled off, using a pair of forceps. The remaining intestinal segments, comprising mucosal, submucosal and muscular layers were placed in carbogen-saturated KBRS and immediately used for the experiments. Throughout these experiments, "wild-type" mice have the same genetic background as the knockout mice. For myography experiments, intestinal segments were prepared from mice at the age of 4-7 months. Wild-type control mice were matched in age to the respective knock-out animals.
Mice were housed in groups of two to three animals under the approved standard conditions including a 12 h light-dark-regime and access to food and water ad libitum (see above). Strains for testing intestinal contractility were C57BL6/N mice (from Charles River) and homozygous TRPC5 or TRPC4 single knockout mice,80 both back-crossed on the C57BL6/N background for at least five generations. All mice were of male sex. […]
Myographic isometric contractility: The contractile forces exerted by the circular layer of intestinal segments were quantitatively assessed by measurement in a 4-channel calibrated multi myograph device (DMT 620M, Danish Myo Technology, Hinnerup, Denmark), with digital data acquisition controlled by Labchart software (Version v8; ADINSTRUMENTS). Heated (37°C) bath chambers were filled with carbogen-equilibrated KBRS, and typically 3-mm ileal segments were manoeuvred over custom-made u-shaped hooks that prevented the mucosal layer from prolapsing on the edges. A pre-tension of typically 1.5-2 mN/mm was applied, and ileal segments were allowed […]
solvent (0.5% DMSO). After renewing the pre-tension, the recording of isometric contractions was started, while applying alternating illuminations typically at 365 nm and 447 nm, or else at 385 nm and 470 nm, (typically 10 s exposure each) over typically 9-11 cycles, with no additional illumination […]
segments (N/m) (Fig. 6d-h, Supplementary Fig. 23c-g).
7.1.1 First Saturate with Ligand, Then Dial the Wavelength
Even in the usually tricky situation that a targeted biological effect only occurs when a protein target is partially but not fully stimulated (here: physiology-like contractility as in Fig. 6e, with the overlay of the normal oscillatory frequncy), ideal efficacy switches are still perfectly capable of addressing them robustly. What is possible in the rare case that only fixed operating wavelengths may be available [e.g. in Fig. 6ef, if only 365 nm and 447 nm would be available], would be to use a sub-

Which results are given for `Cn1c(=O)n(CCCO)c(=O)c2c1nc(Oc1ccc(N=Nc3ccccc3)c(OC(F)(F)F)c1)n2Cc1ccc(Cl)cc1` [AzPico]?
Wavelength range for effective off-photoswitching (channel currents) (TRPC4): 400-480 nm; Response of atropine-paralysed small intestine segments to UV illumination ([1]; 10 nM, 300 nM atropine, stopped by 447 nm): initiated vigorous motions; Photoresponse of colon segments ([1]; treated colon segments): no photoresponse; Response of segments of TRPC4-deficient mice ([2]; 3 nM, 365/447 nm): never responded; Increase of oscillatory forces under 365 nm ([2]; 3 nM, wild-type segments): 1.9 ×; Time to recovery of oscillatory contractions under 447 nm ([2]; 30 nM, after 365 nm rictus-like state): 10 to 30 s; Effect of 365 nm at moderate to high concentration ([2]; 30 nM, 365 nm): rictus-like intestinal tensioning and rundown; Photoswitchability after medium replacement ([2]; 300 nM preincubated 2 h, then washed 2 h, 385/470 nm): remain perfectly photoreversibly operable; Effect of 385 nm at saturating concentration ([2]; 300 nM, 385 nm): only partial channel activation; Tonic and oscillatory force photoresponses in TRPC5-deficient mice vs matched control mice ([2]; 365/447 nm): indistinguishable
